The values that follow come from patent publication US20040116420A1 (priority 2001, published 2004).

One data set is described as follows: Human plasma stability. The class given is in vitro ADME. How it is done: An Assay Method for Human Plasma Stability Human plasma was thawed, 200 μl each thereof was placed in each cell of a 96-well plate immediately thereafter, and 4 μl of solution of each test compound in 1 mM DMF was added thereto. A microplate reader for fluorescence absorption was used to assay changes in fluorescence, and half life was determined based on the changes.

The subject of the next data set is Vero cells. Put plainly: Cytotoxicity, Vero cells, Alamar Blue. The conditions noted are these: 25 μM, 20 hours. The class given is cell-based. The method, boiled down: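 Living-cell ratio versus untreated control was read by Alamar Blue absorbance after about 6 h of dye incubation. Before that, Vero cells had received 25 μM test compound in 2% FBS-DMEM for 20 hours at 37 °C under 5% CO2.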

The target of a further data set is T1, HSV-1 protease (Human herpesvirus 1, UniProt P10210).
T1 construct: 6xHis (N); made in house; host or cells: baculovirus expression system
T1 sequence (P10210 1-247): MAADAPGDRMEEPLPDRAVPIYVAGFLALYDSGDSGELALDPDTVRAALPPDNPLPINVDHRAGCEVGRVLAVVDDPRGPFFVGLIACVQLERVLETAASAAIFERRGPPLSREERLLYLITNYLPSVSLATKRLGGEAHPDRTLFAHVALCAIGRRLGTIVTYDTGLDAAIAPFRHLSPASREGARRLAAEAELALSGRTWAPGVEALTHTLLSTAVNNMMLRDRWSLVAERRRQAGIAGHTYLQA
Put plainly: Enzymatic assay for HSV-1 protease (assembly) inhibitor, fluorescence polarization. The class given is biochemical. The conditions noted are these: read-out: HSV-1 Enzyme inhibition IC50. Put shortly:
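Fluorescence polarization read-out: after avidin stop, cleavage of a biotinylated DTAF-labelled release-site peptide by recombinant N-His6 HSV-1 protease was compared with no-inhibitor wells. Enzyme and compound were preincubated 30 min, then substrate reacted 60 min, all at room temperature, pH 7.4 citrate buffer with TCEP.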

The subject of the next data set is HSV-1. Kind of data set: Antiviral activity, HSV-1 in Vero cells, plaque method. The data set is classed as cell-based. The conditions noted are these: Human alphaherpesvirus 1, 20 hours, 90% inhibition of plaque formation. Put shortly: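 This is a virus-yield read-out. The culture medium was frozen at −80° C and thawed, and the plaques it formed were counted. It came from Vero monolayers infected with 50,000 pfu HSV-1 and then exposed to the compound for 20 h at 37° C. EC90 is the concentration inhibiting 90% of plaque formation relative to the untreated infected control.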

The compound `Cc1c(NC(=O)OC(C)(C)C)ccc2nc(NC(C)(C)C(=O)N(C)CCc3cccnc3)oc(=O)c12` [Compound No.19, (5-Methyl-2-{1-methyl-1-[methyl-(2-pyridin-3-yl-ethyl)-carbamoyl]-ethylamino}-4-oxo-4H-benzo[d][1,3]oxazin-6-yl)-carbamic Acid Tert-Butyl Ester] came in with a half-life at 19.6 μM in the data set “Human plasma stability” of 6.2 h. Also, in the data set with Vero cells, the “Cell viability (% of control)” value was 106.0%. Moreover, the IC50 on HSV-1 protease stood at 0.3 µM. In the data set on HSV-1, this compound showed a concentration for an effect of 90% (EC90) of 6.2 µM.
Taken in the same sequence, the figures for `Cc1c(NC(=O)OC(C)(C)C)ccc2nc(N[C@@H](Cc3ccccc3)C(=O)NCc3ccccn3)oc(=O)c12` [Compound No.20, (5-Methyl-4-oxo-{2-2-phenyl-1S-[(pyridin-2-ylmethyl)-carbamoyl]-ethylamino}-4H-benzo[d][1,3]oxazin-6-yl)-carbamic Acid Tert-Butyl Ester] were 1.47 h, 101.0%, 0.5 µM and 5.9 µM.
Taken in the same sequence, the figures for `Cc1c(NC(=O)OC(C)(C)C)ccc2nc(N[C@@H](CCc3ccccc3)C(=O)N(C)Cc3ccccn3)oc(=O)c12` [Compound No.23, {5-Methyl-2-[1S-(methyl-pyridin-2-ylmethyl-carbamoyl)-3-phenyl-propylamino]-4-oxo-4H-benzo[d][1,3]oxazin-6-yl}-carbamic Acid Tert-Butyl Ester] were 9.92 h, 52.0%, 0.7 µM and less than 3.2 µM.
Taken in the same sequence, the figures for `Cc1c(NC(=O)OC(C)(C)C)ccc2nc(N[C@@H](C)C(=O)N(C)Cc3ccccn3)oc(=O)c12` [Compound No.58, {5-Methyl-2-[1S-(methyl-pyridin-2-ylmethyl-carbamoyl)-ethylamino]-4-oxo-4H-benzo[d][1,3]oxazin-6-yl}-carbamic acid tert-butyl ester] were 8.85 h, 105.0%, 1.7 µM and 10.8 µM.
`Cc1c(NC(=O)OC(C)(C)C)ccc2nc(NC3(C(=O)N(C)Cc4cccnc4)CCCCC3)oc(=O)c12` [Compound No.120, {5-Methyl-2-[1-(methyl-pyridin-3-ylmethyl-carbamoyl)-cyclohexylamino]-4-oxo-4H-benzo[d][1,3]oxazin-6-yl}-carbamic acid tert-butyl ester] showed a half-life at 19.6 μM in “Human plasma stability” of 14.9 h. For the same compound, the IC50 on HSV-1 protease was 1.2 µM. It took 10 µM to reach the 90% level with HSV-1 (EC90).
As to `CCCCCCCC(=O)Nc1ccc2nc(NC(C)(C)C(=O)N(C)CCc3ccccn3)oc(=O)c2c1C` [Compound No.196, Octanoic acid (5-methyl-2-{1-methyl-1-[methyl-(2-pyridin-2-yl-ethyl)-carbamoyl]-ethylamino}-4-oxo-4H-benzo[d][1,3]oxazin-6-yl)-amide], in the data set with Vero cells, the “Cell viability (% of control)” value amounted to 86.5%. For the same compound, on HSV-1 protease, the IC50 is 0.8 µM. Besides, in the data set with HSV-1, the EC90 amounted to 11.5 µM.
On to `Cc1c(NC(=O)C2CCC2)ccc2nc(NC(C)(C)C(=O)N(C)CCc3ccccn3)oc(=O)c12` [Compound No.198, Cyclobutanecarboxylic acid (5-methyl-2-{1-methyl-1-[methyl-(2-pyridin-2-yl-ethyl)-carbamoyl]-ethylamino}-4-oxo-4H-benzo[d][1,3]oxazin-6-yl)-amide], for which, in the data set with Vero cells, the “Cell viability (% of control)” value was 99.2%. Moreover, on HSV-1 protease, the IC50 is 3.6 µM. The compound further gave an EC90 with HSV-1 not below 12.5 µM.
On to `Cc1c(NC(=O)c2cccc(Br)c2)ccc2nc(NC(C)(C)C(=O)N(C)CCc3ccccn3)oc(=O)c12` [Compound No.200, 3-Bromo-N-(5-methyl-2-{1-methyl-1-[methyl-(2-pyridin-2-yl-ethyl)-carbamoyl]-ethylamino}-4-oxo-4H-benzo[d][1,3]oxazin-6-yl)-benzamide], for which, in the data set on Vero cells, the “Cell viability (% of control)” value is given as 21.5%. Moreover, the IC50 at HSV-1 protease was 1.6 µM. In the data set with HSV-1, the 90% effect level (EC90) was put at 3.2 µM.
Taken in the same sequence, the figures for `Cc1c(NC(=O)CCCNC(=O)c2ccccn2)ccc2nc(NC(C)(C)C(=O)N(C)CCc3ccccn3)oc(=O)c12` [Compound No.221, Pyridine-2-carboxylic acid [3-(5-methyl-2-{1-methyl-1-[methyl-(2-pyridin-2-yl-ethyl)-carbamoyl]-ethylamino}-4-oxo-4H-benzo[d][1,3]oxazin-6-ylcarbamoyl)-propyl]-amide] were 105.3%, 0.7 µM and more than 12.5 µM.
Taken in the same sequence, the figures for `Cc1c(NC(=O)CCCNC(=O)c2ccc(N(C)C)cc2)ccc2nc(NC(C)(C)C(=O)N(C)CCc3ccccn3)oc(=O)c12` [Compound No.224, 4-Dimethylamino-N-[3-(5-methyl-2-{1-methyl-1-[methyl-(2-pyridin-2-yl-ethyl)-carbamoyl]-ethylamino}-4-oxo-4H-benzo[d][1,3]oxazin-6-ylcarbamoyl)-propyl]-benzamide] were 107.5%, 0.4 µM and more than 12.5 µM.
Taken in the same sequence, the figures for `Cc1c(NC(=O)c2ccccc2Cl)ccc2nc(NC(C)(C)C(=O)N(C)CCc3ccccn3)oc(=O)c12` [compound 151, 2-Chloro-N-(5-methyl-2-{1-methyl-1-[methyl-(2-pyridin-2-yl-ethyl)-carbamoyl]-ethylamino}-4-oxo-4H-benzo[d][1,3]oxazin-6-yl)-benzamide] were 74.2%, 1.4 µM and 7.6 µM.
`Cc1cccc(C(=O)Nc2ccc3nc(NC(C)(C)C(=O)N(C)CCc4ccccn4)oc(=O)c3c2C)c1` [compound 157, 3-Methyl-N-(5-methyl-2-{1-methyl-1-[methyl-(2-pyridin-2-yl-ethyl)-carbamoyl]-ethylamino}-4-oxo-4H-benzo[d][1,3]oxazin-6-yl)-benzamide]: the “Cell viability (% of control)” value in the data set with Vero cells turned out to be 70.5%. The IC50 at HSV-1 protease turned out to be 3.3 µM. In addition, the EC90 with HSV-1 turned out to be 6.2 µM.
On to `COc1cc(OC)cc(C(=O)Nc2ccc3nc(NC(C)(C)C(=O)N(C)CCc4ccccn4)oc(=O)c3c2C)c1` [compound 191, 3,5-Dimethoxy-N-(5-methyl-2-{1-methyl-1-[methyl-(2-pyridin-2-yl-ethyl)-carbamoyl]-ethylamino}-4-oxo-4H-benzo[d][1,3]oxazin-6-yl)-benzamide], for which the “Cell viability (% of control)” value with Vero cells is reported as 89.1%. Moreover, the IC50 on HSV-1 protease stood at 0.6 µM. The compound further returned an EC90 in the data set with HSV-1 of more than 12.5 µM.
For `Cc1c(NC(=O)c2ccccc2Br)ccc2nc(NC(C)(C)C(=O)N(C)CCc3ccccn3)oc(=O)c12` [compound 199, 2-Bromo-N-(5-methyl-2-{1-methyl-1-[methyl-(2-pyridin-2-yl-ethyl)-carbamoyl]-ethylamino}-4-oxo-4H-benzo[d][1,3]oxazin-6-yl)-benzamide], the “Cell viability (% of control)” value in the data set on Vero cells is 56.9%. The IC50 at HSV-1 protease is 3 µM. This compound also came in with an EC90 in the data set on HSV-1 of 4.1 µM.
`COc1ccc(CC(Nc2nc3ccc(NC(=O)OC(C)(C)C)c(C)c3c(=O)o2)C(=O)NCc2ccccn2)cc1` (stereo not shown) [compound 230, (2-{2-(4-Methoxy-phenyl)-1-[(pyridin-2-ylmethyl)-carbamoyl]-ethylamino}-5-methyl-4-oxo-4H-benzo[d][1,3]oxazin-6-yl)-carbamic acid tert-butyl ester, reference compound] displayed a half-life at 19.6 μM in the data set “Human plasma stability” of 0.45 h. For the same compound, at HSV-1 protease, the IC50 worked out at 0.4 µM. For the same compound, it took 6.1 µM to reach the 90% level with HSV-1 (EC90).
